Target: T1, WIZ protein (HiBit-WIZ fusion protein) (Homo sapiens, UniProt O95785+Q96SW2)
T1 construct: expressed in transfected cells
Assay: Quantification of WIZ protein levels in HiBit tag fusion protein assay (WIZ HiBit assay in 293T cells)
Format: cell-based
Set-up: remaining activity / Dmax: dose or concentration left out as unconfirmed
Conditions: for Dmax at 25 µM: 100 − Amax; for Dmax at 25 µM / remaining activity at 25 µM: 293T cells; for remaining activity at 25 µM: DMSO-normalized, curve-fitted percentage of WIZ-HiBit remaining at 25 uM; for DC50: WIZ HiBit assay in 293T cells, 10-point, 5-fold dose response, highest concentration 25 μM, about 18 hours, read-out: WIZ AC50
In short: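 Luminescence after LgBit complementation quantified remaining HiBit-WIZ in lysates of single-copy stable 293T lines. Cells dosed ~18 h at 37 °C with 10-point, 5-fold dilutions (highest 25 μM); DMSO set to 100%, fitted curve gave % remaining at 25 μM (Amax).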

[1] = HEK-293T, read-out: % degradation of WIZ (100 − Amax)

T1 sequence (O95785 whole entry, the tested form may be a part): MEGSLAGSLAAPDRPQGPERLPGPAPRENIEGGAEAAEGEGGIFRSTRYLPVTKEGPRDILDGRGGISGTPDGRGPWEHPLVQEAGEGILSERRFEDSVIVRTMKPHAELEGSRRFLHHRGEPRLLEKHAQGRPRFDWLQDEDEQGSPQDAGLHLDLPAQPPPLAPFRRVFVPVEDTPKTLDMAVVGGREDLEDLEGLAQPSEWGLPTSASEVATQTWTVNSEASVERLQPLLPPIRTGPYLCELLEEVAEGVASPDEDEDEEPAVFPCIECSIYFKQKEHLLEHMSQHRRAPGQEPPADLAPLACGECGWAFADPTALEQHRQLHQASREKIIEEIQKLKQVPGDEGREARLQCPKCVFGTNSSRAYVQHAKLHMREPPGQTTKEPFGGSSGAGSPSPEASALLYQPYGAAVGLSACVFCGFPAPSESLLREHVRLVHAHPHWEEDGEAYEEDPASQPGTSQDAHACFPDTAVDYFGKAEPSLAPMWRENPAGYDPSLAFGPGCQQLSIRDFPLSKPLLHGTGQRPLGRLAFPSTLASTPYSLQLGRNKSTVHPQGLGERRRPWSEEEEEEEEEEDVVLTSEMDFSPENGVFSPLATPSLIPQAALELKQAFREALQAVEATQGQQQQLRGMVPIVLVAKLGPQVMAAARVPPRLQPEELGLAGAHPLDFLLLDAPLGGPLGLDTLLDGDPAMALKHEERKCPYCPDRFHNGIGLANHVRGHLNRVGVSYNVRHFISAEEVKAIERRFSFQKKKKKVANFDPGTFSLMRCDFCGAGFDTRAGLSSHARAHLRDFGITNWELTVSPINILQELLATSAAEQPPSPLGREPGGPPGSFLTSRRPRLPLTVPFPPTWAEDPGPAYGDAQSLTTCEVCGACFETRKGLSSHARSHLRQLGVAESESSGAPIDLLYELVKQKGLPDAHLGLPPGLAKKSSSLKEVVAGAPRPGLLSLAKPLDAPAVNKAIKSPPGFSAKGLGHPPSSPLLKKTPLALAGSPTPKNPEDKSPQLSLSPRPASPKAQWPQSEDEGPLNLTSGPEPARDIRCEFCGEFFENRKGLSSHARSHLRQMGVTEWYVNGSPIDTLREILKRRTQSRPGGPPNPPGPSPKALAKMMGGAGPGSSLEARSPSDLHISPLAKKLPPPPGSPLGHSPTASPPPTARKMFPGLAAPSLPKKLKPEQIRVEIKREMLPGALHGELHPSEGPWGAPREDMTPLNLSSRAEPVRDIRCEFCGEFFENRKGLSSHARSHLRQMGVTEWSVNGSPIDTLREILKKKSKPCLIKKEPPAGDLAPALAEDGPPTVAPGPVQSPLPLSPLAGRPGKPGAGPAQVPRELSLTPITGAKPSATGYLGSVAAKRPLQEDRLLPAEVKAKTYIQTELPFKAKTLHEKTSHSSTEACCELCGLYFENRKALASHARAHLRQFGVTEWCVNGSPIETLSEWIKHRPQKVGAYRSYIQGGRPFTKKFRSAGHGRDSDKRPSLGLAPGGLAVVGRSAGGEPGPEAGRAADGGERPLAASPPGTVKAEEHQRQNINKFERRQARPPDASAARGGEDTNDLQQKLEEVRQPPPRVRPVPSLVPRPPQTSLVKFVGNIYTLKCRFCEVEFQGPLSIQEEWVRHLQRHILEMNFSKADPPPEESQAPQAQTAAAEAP
T1 sequence (Q96SW2 whole entry, the tested form may be a part): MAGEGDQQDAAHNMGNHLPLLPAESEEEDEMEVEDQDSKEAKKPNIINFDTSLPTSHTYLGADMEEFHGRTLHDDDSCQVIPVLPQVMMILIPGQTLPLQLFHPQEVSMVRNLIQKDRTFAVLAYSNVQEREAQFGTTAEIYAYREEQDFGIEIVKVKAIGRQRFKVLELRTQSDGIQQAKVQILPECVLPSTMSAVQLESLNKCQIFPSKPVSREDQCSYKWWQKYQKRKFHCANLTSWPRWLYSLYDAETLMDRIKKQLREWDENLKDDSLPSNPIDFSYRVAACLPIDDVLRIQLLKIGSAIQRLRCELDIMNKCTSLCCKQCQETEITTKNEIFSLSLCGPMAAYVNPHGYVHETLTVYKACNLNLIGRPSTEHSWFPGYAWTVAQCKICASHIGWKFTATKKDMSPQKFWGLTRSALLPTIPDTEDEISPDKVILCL
T1 sequence (Q16531 whole entry partner, the tested form may be a part): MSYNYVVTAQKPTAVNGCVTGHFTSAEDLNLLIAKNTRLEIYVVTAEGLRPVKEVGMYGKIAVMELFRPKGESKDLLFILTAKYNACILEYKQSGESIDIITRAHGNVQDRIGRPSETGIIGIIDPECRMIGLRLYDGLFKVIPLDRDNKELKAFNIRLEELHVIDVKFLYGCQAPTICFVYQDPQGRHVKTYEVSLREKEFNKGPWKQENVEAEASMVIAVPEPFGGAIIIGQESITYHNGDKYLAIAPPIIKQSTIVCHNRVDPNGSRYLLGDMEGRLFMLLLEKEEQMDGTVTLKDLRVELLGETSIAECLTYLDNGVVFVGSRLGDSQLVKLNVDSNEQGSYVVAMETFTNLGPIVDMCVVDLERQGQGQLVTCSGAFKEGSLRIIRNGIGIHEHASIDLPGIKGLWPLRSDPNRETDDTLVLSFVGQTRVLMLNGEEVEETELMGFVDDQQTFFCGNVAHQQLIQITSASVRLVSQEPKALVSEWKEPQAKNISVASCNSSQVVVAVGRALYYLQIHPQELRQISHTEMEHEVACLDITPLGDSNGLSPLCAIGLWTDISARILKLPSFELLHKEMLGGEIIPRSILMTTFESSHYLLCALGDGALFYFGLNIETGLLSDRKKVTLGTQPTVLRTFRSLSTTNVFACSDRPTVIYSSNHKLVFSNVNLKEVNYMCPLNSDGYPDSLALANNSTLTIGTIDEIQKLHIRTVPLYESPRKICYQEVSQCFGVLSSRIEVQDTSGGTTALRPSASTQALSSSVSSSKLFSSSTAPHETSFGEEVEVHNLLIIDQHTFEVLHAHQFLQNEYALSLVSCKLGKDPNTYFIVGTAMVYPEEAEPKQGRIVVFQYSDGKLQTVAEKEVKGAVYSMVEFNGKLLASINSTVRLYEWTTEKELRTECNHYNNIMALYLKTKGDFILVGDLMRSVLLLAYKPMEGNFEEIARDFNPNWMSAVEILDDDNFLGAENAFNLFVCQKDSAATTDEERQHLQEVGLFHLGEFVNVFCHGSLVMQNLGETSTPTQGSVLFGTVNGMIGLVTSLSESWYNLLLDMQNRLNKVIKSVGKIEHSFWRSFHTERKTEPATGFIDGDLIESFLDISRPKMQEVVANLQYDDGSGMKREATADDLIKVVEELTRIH

In the case of `O=C1CCN(c2cnn3ccc(CC4CCN(Cc5ccc(F)cc5F)CC4)cc23)C(=O)N1` [Example 50, 1-(5-((1-(2,4-difluorobenzyl)piperidin-4-yl)methyl)pyrazolo[1,5-a]pyridin-3-yl)dihydropyrimidine-2,4(1H,3H)-dione], the Dmax at 25 µM [1] is reported as 66%, the remaining activity at 25 µM (HEK-293T, read-out: WIZ Amax) is reported as 34% and the DC50 is reported as 113 nM.

`CCC(C)CN1CCC(Cc2ccn3ncc(N4CCC(=O)NC4=O)c3c2)CC1` (stereo not drawn) [Example 9, 1-(5-((1-(2-methylbutyl)piperidin-4-yl)methyl)pyrazolo[1,5-a]pyridin-3-yl)dihydropyrimidine-2,4(1H,3H)-dione] gave a Dmax at 25 µM [1] of 84%, a remaining activity at 25 µM (HEK-293T, read-out: WIZ Amax) of 16% and a DC50 of 31 nM.

`CN1CCC(Cc2ccn3ncc(N4CCC(=O)NC4=O)c3c2)CC1` [Example 49, 1-(5-((1-methylpiperidin-4-yl)methyl)pyrazolo[1,5-a]pyridin-3-yl)dihydropyrimidine-2,4(1H,3H)-dione] showed a Dmax at 25 µM [1] of 66%, a remaining activity at 25 µM (HEK-293T, read-out: WIZ Amax) of 34% and a DC50 of 2790 nM.

Work on `O=C1CCN(c2cnn3ccc(CC4CCN(S(=O)(=O)N5CCCC5)CC4)cc23)C(=O)N1` [Example 297, 1-(5-((1-(pyrrolidin-1-ylsulfonyl)piperidin-4-yl)methyl)pyrazolo[1,5-a]pyridin-3-yl)dihydropyrimidine-2,4(1H,3H)-dione] yielded a Dmax at 25 µM [1] of 68%, a remaining activity at 25 µM (HEK-293T, read-out: WIZ Amax) of 32% and a DC50 of 29 nM.

`CC(C)CN1CCCN(Cc2ccn3ncc(N4CCC(=O)NC4=O)c3c2)CC1` [Example 250, 1-(5-((4-isobutyl-1,4-diazepan-1-yl)methyl)pyrazolo[1,5-a]pyridin-3-yl)dihydropyrimidine-2,4(1H,3H)-dione] gave a Dmax at 25 µM [1] of 41%, a remaining activity at 25 µM (HEK-293T, read-out: WIZ Amax) of 59% and a DC50 of 1350 nM.

In the case of `O=C1CCN(c2cnn3ccc(CC4CN(CC5CCCCC5)C4)cc23)C(=O)N1` [Example 135, 1-(5-((1-(cyclohexylmethyl)azetidin-3-yl)methyl)pyrazolo[1,5-a]pyridin-3-yl)dihydropyrimidine-2,4(1H,3H)-dione], the Dmax at 25 µM [1] is reported as 26%, the remaining activity at 25 µM (HEK-293T, read-out: WIZ Amax) is reported as 74% and the DC50 is reported as 2100 nM.

In the case of `O=C1CCN(c2cnn3ccc(CN4CCN(CC5CCCCCC5)CC4)cc23)C(=O)N1` [Example 158], the Dmax at 25 µM [1] is reported as 82%, the remaining activity at 25 µM (HEK-293T, read-out: WIZ Amax) is reported as 18% and the DC50 is reported as 25 nM.

`CC(C)N1CCN(Cc2ccn3ncc(N4CCC(=O)NC4=O)c3c2)CC1` [Example 166] showed a Dmax at 25 µM [1] of 66%, a remaining activity at 25 µM (HEK-293T, read-out: WIZ Amax) of 34% and a DC50 of 632 nM.

In the case of `O=C1CCN(c2cnn3ccc(CC4CCN(CC(F)(F)F)CC4)cc23)C(=O)N1` [Example 30, 1-(5-((1-(2,2,2-trifluoroethyl)piperidin-4-yl)methyl)pyrazolo[1,5-a]pyridin-3-yl)dihydropyrimidine-2,4(1H,3H)-dione], the Dmax at 25 µM [1] is reported as 80%, the remaining activity at 25 µM (HEK-293T, read-out: WIZ Amax) is reported as 20% and the DC50 is reported as 201 nM.

With `CC[C@H]1CN(Cc2ccn3ncc(N4CCC(=O)NC4=O)c3c2)CCN1CC(C)C` [Example 228, (S)-1-(5-((3-ethyl-4-isobutylpiperazin-1-yl)methyl)pyrazolo[1,5-a]pyridin-3-yl)dihydropyrimidine-2,4(1H,3H)-dione] the Dmax at 25 µM [1] was 55%, the remaining activity at 25 µM (HEK-293T, read-out: WIZ Amax) was 45% and the DC50 was 704 nM.

Molecule `C[C@H]1C[C@H](Cc2ccn3ncc(N4CCC(=O)NC4=O)c3c2)CCN1CC(F)F` [Example 274, 1-(5-(((2S,4R)-1-(2,2-difluoroethyl)-2-methylpiperidin-4-yl)methyl)pyrazolo[1,5-a]pyridin-3-yl)dihydropyrimidine-2,4(1H,3H)-dione] has a Dmax at 25 µM [1] of 77%, a remaining activity at 25 µM (HEK-293T, read-out: WIZ Amax) of 23% and a DC50 of 32 nM.

For `Cc1cn(-c2cnn3ccc(CN4CCN(CC5CC5)[C@@H](C)C4)cc23)c(=O)[nH]c1=O` [Example 362, (S)-1-(5-((4-(cyclopropylmethyl)-3-methylpiperazin-1-yl)methyl)pyrazolo[1,5-a]pyridin-3-yl)-5-methylpyrimidine-2,4(1H,3H)-dione], the Dmax at 25 µM [1] was 84%, the remaining activity at 25 µM (HEK-293T, read-out: WIZ Amax) was 16% and the DC50 was 765 nM.

For `O=C1CCN(c2cnn3ccc(CC4CCN(CC5CCCCCC5)CC4)cc23)C(=O)N1` [Example 8, 1-(5-((1-(cycloheptylmethyl)piperidin-4-yl)methyl)pyrazolo[1,5-a]pyridin-3-yl)dihydropyrimidine-2,4(1H,3H)-dione], the Dmax at 25 µM [1] was 86%, the remaining activity at 25 µM (HEK-293T, read-out: WIZ Amax) was 14% and the DC50 was 8 nM.

`C[C@H]1CN(Cc2ccn3ncc(N4CCC(=O)NC4=O)c3c2)CCN1CC1CCCC1` [Example 212] gave a Dmax at 25 µM [1] of 84%, a remaining activity at 25 µM (HEK-293T, read-out: WIZ Amax) of 16% and a DC50 of 29 nM.

In the case of `CC(=O)N1CCC(Cc2ccn3ncc(N4CCC(=O)NC4=O)c3c2)CC1` [Example 104, 1-(5-((1-acetylpiperidin-4-yl)methyl)pyrazolo[1,5-a]pyridin-3-yl)dihydropyrimidine-2,4(1H,3H)-dione], the Dmax [1] is reported as 62%, the remaining activity (HEK-293T, read-out: WIZ Amax) is reported as 38% and the DC50 is reported as 7360 nM.

For `C[C@H]1C[C@H](Cc2ccn3ncc(N4CCC(=O)NC4=O)c3c2)CCN1C(=O)C1CCC1` [Example 289], the Dmax at 25 µM [1] was 79%, the remaining activity at 25 µM (HEK-293T, read-out: WIZ Amax) was 21% and the DC50 was 33 nM.

`C[C@H]1CC(F)(Cc2ccn3ncc(N4CCC(=O)NC4=O)c3c2)CCN1C1COC1` (single isomer, unassigned) [Example 310] was tested, and the Dmax at 25 µM [1] was 73%, the remaining activity at 25 µM (HEK-293T, read-out: WIZ Amax) was 27% and the DC50 was 150 nM.

With `O=C1CCN(c2cnn3ccc(CC4CCN(Cc5ccccc5)CC4)cc23)C(=O)N1` [Example 29, 1-(5-((1-benzylpiperidin-4-yl)methyl)pyrazolo[1,5-a]pyridin-3-yl)dihydropyrimidine-2,4(1H,3H)-dione] the Dmax at 25 µM [1] was 74%, the remaining activity at 25 µM (HEK-293T, read-out: WIZ Amax) was 26% and the DC50 was 232 nM.

`O=C1CCN(c2cnn3ccc(CC4CCCNCC4)cc23)C(=O)N1` (stereo not drawn) [Example 269, 1-(5-(azepan-4-ylmethyl)pyrazolo[1,5-a]pyridin-3-yl)dihydropyrimidine-2,4(1H,3H)-dione] was tested, and the Dmax at 25 µM [1] was 49%, the remaining activity at 25 µM (HEK-293T, read-out: WIZ Amax) was 51% and the DC50 was 1020 nM.

`CC(C)(C1CCOCC1)N1CCC(Cc2ccn3ncc(N4CCC(=O)NC4=O)c3c2)CC1` [Example 136, 1-(5-((1-(2-(tetrahydro-2H-pyran-4-yl)propan-2-yl)piperidin-4-yl)methyl)pyrazolo[1,5-a]pyridin-3-yl)dihydropyrimidine-2,4(1H,3H)-dione] showed a Dmax at 25 µM [1] of 86%, a remaining activity at 25 µM (HEK-293T, read-out: WIZ Amax) of 14% and a DC50 of 33 nM.

In the case of `CC(C)CN1CCC(Cc2ccn3ncc(N4CCC(=O)NC4=O)c3c2)C1` (stereo not drawn) [Example 132], the Dmax at 25 µM [1] is reported as 41%, the remaining activity at 25 µM (HEK-293T, read-out: WIZ Amax) is reported as 59% and the DC50 is reported as 720 nM.

For `C[C@H]1C[C@H](Cc2ccn3ncc(N4CCC(=O)NC4=O)c3c2)CCN1CC1CCC(C)(C)CC1` [Example 149], the Dmax at 25 µM [1] was 90%, the remaining activity at 25 µM (HEK-293T, read-out: WIZ Amax) was 10% and the DC50 was 0.4 nM.

`C[C@H]1CN(Cc2ccn3ncc(N4CCC(=O)NC4=O)c3c2)CCN1C1CCOCC1` [Example 330] showed a Dmax at 25 µM [1] of 82%, a remaining activity at 25 µM (HEK-293T, read-out: WIZ Amax) of 18% and a DC50 of 41 nM.

With `O=C1CCN(c2cnn3ccc(CC4CCN(CC5CCOCC5)CC4)cc23)C(=O)N1` [Example 3, 1-(5-((1-((tetrahydro-2H-pyran-4-yl)methyl)piperidin-4-yl)methyl)pyrazolo[1,5-a]pyridin-3-yl)dihydropyrimidine-2,4(1H,3H)-dione] the Dmax at 25 µM [1] was 90%, the remaining activity at 25 µM (HEK-293T, read-out: WIZ Amax) was 10% and the DC50 was 20 nM.
